Literature values, collected in US20070141027A1, “Non-lethal conditioning methods for conditioning a recipient for bone marrow transplantation” (UNIVERSITY OF LOUISVILLE RESEARCH FOUNDATION INC., priority 2003, published 2007).

Tested on: mice
Details: reduced from 700 cGy TBI alone; CyP 200 mg/kg i.p. 2 days after BMT; ALG or anti-CD8 on day -3 added to it

## O=P1(N(CCCl)CCCl)NCCCO1 (stereo not shown) [cyclophosphamide (CyP), cyclophosphamide]
  TBI dose for allogeneic marrow engraftment: 500 cGy
